Source: patent US11083743B2, “DNA hypomethylating agents for cancer therapy” (priority 2013, dated 2021)

Assays:
[1] = test system: TS/A cells; assay: Anti-tumor activity on TS/A tumor grafts in syngeneic BALB/c mice (caliper tumor volume); type: in vivo; settings: FIG. 1
Procedure: Primary cultures of murine mammary carcinoma cells TS/A were grown in DMEM Medium supplemented with 10% heat-inactivated FCS (Lonza), 2 mM L-glutamine (Biochrom AG) and 50 μM β-mercaptoethanol. Six-week-old female BALB/c, athymic nude and SCID/Beige mice were obtained from Harlan laboratories (Udine, Italy). Animal care and use were in accordance with Institutional guidelines and the indications of Workman et al. (Workman P, et al. Br J Cancer. 2010 May 25; 102(11): 1555-1577). Mice were sc injected in the flank region with TS/A cells (2×10^5) resuspended in 0.1 ml of physiologic saline. […] Control mice were ip injected with 0.2 ml of saline solution. Animals were weekly monitored for changes in the tumor size or sacrificed by CO2 overdose; for the latter, tumor tissues were surgically removed, and each specimen, divided under sterile conditions, were snap-frozen in liquid nitrogen and stored at −80° C. until used for RNA and DNA extraction. In vivo tolerability was evaluated by measurements of body weight and mortality rate. The antiproliferative activity of the drug was evaluated by caliper measurements of tumor mass. Body weight and tumor size measurements were recorded periodically, all along the treatment. Tumor volumes (TV) were calculated as follows: TV=LD^2/2 (in which L is the longest diameter and D the shortest one).

[2] = test system: TS/A cells; assay: Anti-tumor activity on TS/A tumor grafts in T cell-deficient athymic nude mice; type: in vivo; settings: FIG. 6A, first cycle only
Procedure: (§1) Six-week-old female BALB/c, athymic nude and SCID/Beige mice were obtained from Harlan laboratories (Udine, Italy). Animal care and use were in accordance with Institutional guidelines and the indications of Workman et al. (Workman P, et al. Br J Cancer. 2010 May 25; 102(11): 1555-1577).
(§2) Mice were sc injected in the flank region with TS/A cells (2×10^5) resuspended in 0.1 ml of physiologic saline. Animals were examined daily and after a latency period of 1 week, mice bearing clearly palpable and visible tumor grafts (diameter≥0.2 cm) were ip injected with 0.2 ml/injection of i) 15 mg/kg/day of 5-AZA-CdR, three times a day every three hours on days 0 and 7 and on days 42 and 49 for the 2nd cycle of treatment; ii) 100 μg/mouse of anti-CTLA-4 mAb, on days 2, 5 and 8 and on days 44, 47 and 50 for the 2nd cycle of treatment; iii) 100 μg/mouse of anti-PDL-1 mAb on days 2, 5 and 8; iv) combined administration of 5-AZA-CdR and anti-CTLA-4 mAb according to the above reported schedules or; v) combined administration of 5-AZA-CdR and anti-PDL-1 mAb according to the above reported schedules. […] Animals were weekly monitored for changes in the tumor size or sacrificed by CO2 overdose; for the latter, tumor tissues were surgically removed, and each specimen, divided under sterile conditions, were snap-frozen in liquid nitrogen and stored at −80° C. until used for RNA and DNA extraction.

[3] = test system: tumour; assay: Histology and immunohistochemistry of surgically-excised tumors from treated mice; type: in vivo
[4] = test system: MHC class I antigens; assay: MHC class I antigen expression on tumours of treated mice; type: in vivo
[5] = test system: P1A promoter; assay: qMSP analysis of P1A promoter methylation in excised tumor tissues; type: in vivo, murine; settings: FIG. 3; tumors excised one week after end of first cycle (day 8)
Procedure: Mice were sc injected in the flank region with TS/A cells (2×10^5) resuspended in 0.1 ml of physiologic saline. […] Control mice were ip injected with 0.2 ml of saline solution. Animals were weekly monitored for changes in the tumor size or sacrificed by CO2 overdose; for the latter, tumor tissues were surgically removed, and each specimen, divided under sterile conditions, were snap-frozen in liquid nitrogen and stored at -80° C. until used for RNA and DNA extraction. RNA and DNA were extracted from tissues sections, removed from control and treated mice one week after the end of the first cycle treatment (day 8) and homogenized with the aid of Tissue Lyser II (QIAGEN) in Trizol reagent or lysis buffer, respectively. Total RNA was extracted following the manufacturer's instructions and stored at -80° C. Total genomic DNA was extracted by digestion with 100 μg/ml proteinase K in the presence of 0.5% SDS at 50° C. overnight, followed by phenol/chloroform extraction and ethanol precipitation. Genomic DNA was eluted in TE buffer and stored at -20° C. […] Primers for the analysis of the methylation status of […], designed using the free on-line software MethPrimer (Li L C and […] Bioinformatics 2002; 18:1427-31), were: […] (Methylated), forward [NT] ID No. 5), reverse [NT] ID No. 6); […] (Unmethylated), forward [NT] ID No. 7), reverse [NT] ID No. 8). […]

[6] = test system: murine CTA (P1A, Mage-a family); assay: RT-PCR analysis of murine CTA expression in excised tumor tissues; type: in vivo; settings: FIG. 4, tumors excised one week after end of first cycle
Procedure: Mice were sc injected in the flank region with TS/A cells (2×10^5) resuspended in 0.1 ml of physiologic saline. […] Control mice were ip injected with 0.2 ml of saline solution. Animals were weekly monitored for changes in the tumor size or sacrificed by CO2 overdose; for the latter, tumor tissues were surgically removed, and each specimen, divided under sterile conditions, were snap-frozen in liquid nitrogen and stored at -80° C. until used for RNA and DNA extraction. RNA and DNA were extracted from tissues sections, removed from control and treated mice one week after the end of the first cycle treatment (day 8) and homogenized with the aid of Tissue Lyser II (QIAGEN) in Trizol reagent or lysis buffer, respectively. Total RNA was extracted following the manufacturer's instructions and stored at -80° C. Total genomic DNA was extracted by digestion with 100 μg/ml proteinase K in the presence of 0.5% SDS at 50° C. overnight, followed by phenol/chloroform extraction and ethanol precipitation. Genomic DNA was eluted in TE buffer and stored at -20° C. RT-PCR reactions were performed using oligonucleotide primer sequences and PCR amplification programs specific for […] and Mage-a family (Coral S, Covre A et al, Br J Cancer. 2012 Sep. 25; 107(7):1116-24). […]

[7] = test system: TS/A cells; assay: Anti-tumor activity on TS/A tumor grafts in SCID/Beige mice; type: in vivo; settings: FIG. 6B, first cycle only
Procedure: as §1, §2

[8] = test system: P1A; assay: Real-time quantitative RT-PCR of P1A expression in excised tumor tissues; type: in vivo, murine; settings: FIG. 5; normalized to β-actin
Procedure: Mice were sc injected in the flank region with TS/A cells (2×10^5) resuspended in 0.1 ml of physiologic saline. […] Control mice were ip injected with 0.2 ml of saline solution. Animals were weekly monitored for changes in the tumor size or sacrificed by CO2 overdose; for the latter, tumor tissues were surgically removed, and each specimen, divided under sterile conditions, were snap-frozen in liquid nitrogen and stored at -80° C. until used for RNA and DNA extraction. RNA and DNA were extracted from tissues sections, removed from control and treated mice one week after the end of the first cycle treatment (day 8) and homogenized with the aid of Tissue Lyser II (QIAGEN) in Trizol reagent or lysis buffer, respectively. Total RNA was extracted following the manufacturer's instructions and stored at -80° C. […] Real-time quantitative RT-PCR analyses were performed as previously described (Calabro L, et al., J Cell Physiol 2005; 202:474-7) Briefly, total RNA was digested with RNAse-free DNAse (Roche Diagnostics), to remove contaminating genomic DNA. […] Measurement of gene expression was performed utilizing the ABI prism 7000 Sequence Detection System (Applied Biosystems), as previously described (Calabro L, et al., J Cell Physiol 2005; 202:474-7). cDNA standards were obtained by RT-PCR amplification of the specific mRNAs and quantitated by NanoDrop® ND-1000 UV-Vis Spectrophotometer. […]

Nc1ncn([C@H]2C[C@H](O)[C@@H](CO)O2)c(=O)n1 [5-AZA-CdR, 5-aza-2′-deoxycytidine]
tumor growth inhibition ([1]; day 15, vs control mice): 40.7% | tumor growth inhibition ([1]; day 35, vs control mice): 67.6% | tumor growth [2]: significantly (p<0.05 and p<0.01) reduced tumor growth | lymphocyte infiltration into the tumour [3]: neither induces lymphocyte infiltration | tumour necrosis [3]: does not induce tumour necrosis | constitutive expression of MHC class I antigens on tumours [4]: increases | constitutive methylation levels of P1A promoter in cancer tissues vs control mice [5]: significant (p<0.05) reduction | expression of P1A and Mage-a members in tumor tissues [6]: strong de novo expression | tumor growth [7]: significantly (p<0.05 and p<0.01) reduced tumor growth | levels of P1A-specific mRNA expression, 5-AZA-CdR alone compared with combination [8]: similar
